# Key:
# Assay type in all cases: cell-based
# [1] = target: T1, human P2X3 receptor (Homo sapiens, UniProt P56373); assay: Intracellular calcium measurement to assess antagonist activity at human P2X3 receptors (hP2X3 CHO), photina luminescence; parameters: expressed in transfected cells; host or cells: Chinese hamster ovary (CHO) cells; conditions: column 2), CHO cells, agonist α,β-methylene-ATP at EC50
# T1 sequence (P56373 1-397): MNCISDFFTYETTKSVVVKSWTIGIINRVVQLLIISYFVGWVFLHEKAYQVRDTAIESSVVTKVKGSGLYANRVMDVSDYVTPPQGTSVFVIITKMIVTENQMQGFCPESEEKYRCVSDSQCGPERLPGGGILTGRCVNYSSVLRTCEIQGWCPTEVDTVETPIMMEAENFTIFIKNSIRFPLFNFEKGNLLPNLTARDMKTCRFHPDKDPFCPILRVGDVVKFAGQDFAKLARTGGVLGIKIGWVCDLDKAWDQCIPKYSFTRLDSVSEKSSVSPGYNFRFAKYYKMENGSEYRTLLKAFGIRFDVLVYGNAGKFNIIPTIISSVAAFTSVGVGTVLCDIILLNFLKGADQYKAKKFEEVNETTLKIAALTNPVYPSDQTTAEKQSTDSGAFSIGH
# Method in brief: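 Antagonism read as lowered photina luminescence after agonist stimulation in recombinant hP2X3/photina CHO cells. Cells seeded one day earlier (30 °C) and reconstituted with 5 μg/ml coelenterazine in 2 mM Ca-tyrode buffer for 3 h at 37 °C before measurement.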
# [2] = target: T2, human P2X2/3 receptors (Homo sapiens, UniProt P56373+Q9UBL9); assay: Intracellular calcium measurement, antagonist activity at human P2X2/3 receptors (hP2X23 1321N1), Fluo8; conditions: for IC50: column 4); 1321N1 cells, human P2X2/3, Fluo8, agonist ATP at EC50; read-out: 4) hP2X2/3 IC50 [nM] (1321N1); for hP2X23/hP2X3* Selectivity (1321N1): ratio of column 4) hP2X2/3 to column 3) hP2X3, 1321N1
# T2 construct: expressed in transfected cells; host or cells: human astrocytoma 1321N1 (1312N1 [sic])
# T2 sequence (P56373 1-397): T1 sequence (P56373 1-397)
# T2 sequence (Q9UBL9 1-471): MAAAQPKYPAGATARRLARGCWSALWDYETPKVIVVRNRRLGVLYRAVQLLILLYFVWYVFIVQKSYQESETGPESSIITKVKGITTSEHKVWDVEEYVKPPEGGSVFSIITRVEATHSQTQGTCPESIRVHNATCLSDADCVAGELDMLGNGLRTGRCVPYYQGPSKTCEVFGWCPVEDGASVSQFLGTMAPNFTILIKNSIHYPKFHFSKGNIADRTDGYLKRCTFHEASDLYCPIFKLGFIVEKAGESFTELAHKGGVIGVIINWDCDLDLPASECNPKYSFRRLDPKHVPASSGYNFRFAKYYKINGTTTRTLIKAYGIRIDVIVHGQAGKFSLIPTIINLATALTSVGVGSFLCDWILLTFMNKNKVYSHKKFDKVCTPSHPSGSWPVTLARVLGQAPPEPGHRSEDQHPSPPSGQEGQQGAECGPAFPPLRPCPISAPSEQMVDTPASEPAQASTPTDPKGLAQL
# Method in brief: (§1)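 Antagonism was assessed by decrease of the Fluo8 calcium signal after ATP challenge, with ATP dosed at the EC50 of whichever receptor was tested. Stable 1321N1 astrocytoma lines expressed either human P2X3 or both P2X2 and P2X3, and were dye-loaded 60 min before a 10 min compound incubation.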
# [3] = target: T1, human P2X3 receptor; assay: Intracellular calcium measurement, antagonist activity at human P2X3 receptors (hP2X3 1321N1), Fluo8; parameters: expressed in transfected cells; host or cells: human astrocytoma 1321N1 (1312N1 [sic]); conditions: column 3); 1321N1 cells, human P2X3, Fluo8, agonist ATP at EC50
# Method in brief: as §1
IC50 [1],IC50 [2],hP2X23/hP2X3* Selectivity (1321N1) [2],IC50 [3],Structure (SMILES)
10 nM,4150 nM,277,15 nM,COC[C@H](C)N1Cc2c(n(CC(=O)Nc3ccc(F)cn3)c3cc(C(=O)N(C)C4CC4)nn3c2=O)C1=O [Example 196]
29 nM,6650 nM,118,57 nM,"CC(C)N1Cc2c(n(CC(=O)Nc3ccc(F)cn3)c3cc(C4CCN(S(C)(=O)=O)C4)nn3c2=O)C1=O (racemic) [Example 270, N-(5-fluoropyridin-2-yl)-2-{2-[(±)-1-(methylsulfonyl)pyrrolidin-3-yl]-5,8-dioxo-6-(propan-2-yl)-5,6,7,8-tetrahydro-4H-pyrazolo[1,5-a]pyrrolo[3,4-d]pyrimidin-4-yl}acetamide]"
210 nM,> 23000 nM,>85,270 nM,"CCc1cc2n(CC(=O)Nc3ccc(F)cn3)c3c(c(=O)n2n1)CN(C[C@@H]1CCCO1)C3=O [Example 279, 2-{2-ethyl-5,8-dioxo-6-[(2S)-tetrahydrofuran-2-ylmethyl]-5,6,7,8-tetrahydro-4H-pyrazolo[1,5-a]pyrrolo[3,4-d]pyrimidin-4-yl}-N-(5-fluoropyridin-2-yl)acetamide]"
110 nM,12000 nM,84,143 nM,COCC(=O)Nc1cc2n(CC(=O)Nc3ccc(F)cn3)c3c(c(=O)n2n1)CN(C(C)C)C3=O [Example 285]
433 nM,> 32000 nM,>52,610 nM,CCc1cc2n(CC(=O)Nc3ccc(F)cn3)c3c(c(=O)n2n1)CN(C1CCN(S(C)(=O)=O)C1)C3=O (stereo not shown) [Example 272]
615 nM,> 32000 nM,>25,1280 nM,"CCc1cc2n(CC(=O)Nc3ccc(F)cn3)c3c(c(=O)n2n1)CN(C1CCNC1)C3=O.Cl (racemic) [Example 236, 2-{2-ethyl-5,8-dioxo-6-[(±)-pyrrolidin-3-yl]-5,6,7,8-tetrahydro-4H-pyrazolo[1,5-a]pyrrolo[3,4-d]pyrimidin-4-yl}-N-(5-fluoropyridin-2-yl)acetamide hydrochloride (1:1)]"
42 nM,1590 nM,30,53 nM,"CCc1cc2n(CC(=O)Nc3ccc(F)cn3)c3c(c(=O)n2n1)CN(C[C@H]1CN(C(C)C)CCO1)C3=O [Example 256, 2-(2-ethyl-5,8-dioxo-6-{[(2R)-4-(propan-2-yl)morpholin-2-yl]methyl}-5,6,7,8-tetrahydro-4H-pyrazolo[1,5-a]pyrrolo[3,4-d]pyrimidin-4-yl)-N-(5-fluoropyridin-2-yl)acetamide]"
37 nM,> 32000 nM,>481,67 nM,"CC(C)N1Cc2c(n(CC(=O)Nc3ccc(F)cn3)c3cc(C(=O)N4CCOCC4)nn3c2=O)C1=O [Example 225, N-(5-fluoropyridin-2-yl)-2-[2-(morpholin-4-ylcarbonyl)-5,8-dioxo-6-(propan-2-yl)-5,6,7,8-tetrahydro-4H-pyrazolo[1,5-a]pyrrolo[3,4-d]pyrimidin-4-yl]acetamide]"
360 nM,> 32000 nM,>34,937 nM,"CCc1cc2n(CC(=O)Nc3ccc(F)cn3)c3c(c(=O)n2n1)CN(C[C@H]1CNCCO1)C3=O [Example 247, 2-{2-ethyl-6-[(2R)-morpholin-2-ylmethyl]-5,8-dioxo-5,6,7,8-tetrahydro-4H-pyrazolo[1,5-a]pyrrolo[3,4-d]pyrimidin-4-yl}-N-(5-fluoropyridin-2-yl)acetamide]"
162 nM,4300 nM,36,118 nM,CC(C)N1Cc2c(n(CC(=O)Nc3ccc(F)cn3)c3cc(C4CCN(C5CCC5)C4)nn3c2=O)C1=O (stereo not shown) [Example 250]

# Continued, compound first:
Structure (SMILES),IC50 [1],IC50 [2],hP2X23/hP2X3* Selectivity (1321N1) [2],IC50 [3]
CC(C)N1Cc2c(n(CC(=O)Nc3ccc(F)cn3)c3cc(NC(=O)OC(C)(C)C)nn3c2=O)C1=O [Example 91],27 nM,1900 nM,58,33 nM
"CC(C)N1Cc2c(n(CC(=O)Nc3ccc(F)cn3)c3cc(N4CCN(C)CC4)nn3c2=O)C1=O [Example 181, N-(5-fluoropyridin-2-yl)-2-[2-(4-methylpiperazin-1-yl)-5,8-dioxo-6-(propan-2-yl)-5,6,7,8-tetrahydro-4H-pyrazolo[1,5-a]pyrrolo[3,4-d]pyrimidin-4-yl]acetamide]",63 nM,5550 nM,173,32 nM
COC[C@H](C)N1Cc2c(n(CC(=O)Nc3ccc(F)cn3)c3cc(N(C)C)nn3c2=O)C1=O [Example 177],30 nM,11500 nM,397,29 nM
COC[C@H](C)N1Cc2c(n(CC(=O)Nc3ccc(F)cn3)c3cc(C4CC4)nn3c2=O)C1=O [Example 101],28 nM,6950 nM,535,13 nM
COC[C@H](C)N1Cc2c(n(CC(=O)Nc3ccc(F)cn3)c3cc(C(=O)N4CCC4)nn3c2=O)C1=O [Example 194],18 nM,3200 nM,368,9 nM
COC[C@H](C)N1Cc2c(n(CC(=O)Nc3ccc(F)cn3)c3cc(C(=O)N(C)CC4CC4)nn3c2=O)C1=O [Example 195],20 nM,8900 nM,399,22 nM
O=C(Cn1c2c(c(=O)n3nc(Cl)cc13)CN(CCN1CCOCC1)C2=O)Nc1ccc(F)cn1 [Example 105],78 nM,> 32000 nM,>348,92 nM
CC(C)N1Cc2c(n(CC(=O)Nc3ccc(F)cn3)c3cc(C(C)(C)O)nn3c2=O)C1=O [Example 88],115 nM,> 23500 nM,>423,56 nM
CCc1cc2n(CC(=O)Nc3ccc(F)cn3)c3c(c(=O)n2n1)CN(CC1CCOC1)C3=O (stereo not shown) [Example 74],570 nM,> 32000 nM,>73,437 nM
Cc1ccc(-c2cc3n(CC(=O)Nc4ccc(F)cn4)c4c(c(=O)n3n2)CN(C(C)C)C4=O)nc1 [Example 69],8 nM,1700 nM,447,4 nM
CCc1cc2n(CC(=O)Nc3ccc(C)cn3)c3c(c(=O)n2n1)CN(CC1CCOC1)C3=O (stereo not shown) [Example 61],695 nM,> 23000 nM,>12,1930 nM
COCCN1Cc2c(n(CC(=O)Nc3ccc(F)cn3)c3cc(CC(C)C)nn3c2=O)C1=O [Example 98],8 nM,2600 nM,211,12 nM
CC(C)N1Cc2c(n(CC(=O)Nc3ccc(F)cn3)c3cc(C(=O)N4CCN(C)CC4)nn3c2=O)C1=O [Example 188],91 nM,> 32000 nM,>267,120 nM
"COC[C@H](C)N1Cc2c(n(CC(=O)Nc3ccc(F)cn3)c3cc(-c4ccc(C)nc4)nn3c2=O)C1=O [Example 151, N-(5-fluoropyridin-2-yl)-2-{6-[(2S)-1-methoxypropan-2-yl]-2-(6-methylpyridin-3-yl)-5,8-dioxo-5,6,7,8-tetrahydro-4H-pyrazolo[1,5-a]pyrrolo[3,4-d]pyrimidin-4-yl}acetamide]",6 nM,580 nM,106,5 nM
COC[C@H](C)N1Cc2c(n(CC(=O)Nc3ccc(F)cn3)c3cc(C(=O)NC4CC4)nn3c2=O)C1=O [Example 192],56 nM,> 19600 nM,>530,37 nM

# Reference: US11319324B2, “Pyrazolo-pyrrolo-pyrimidine-dione derivatives as P2X3 inhibitors” (Bayer Aktiengesellschaft, priority 2017, dated 2022)
